Patent US8846914B2, “Compositions to effect neuronal growth” (Neuralstem, Inc., priority 2003, dated 2014)
Read-outs that look alike come from different tables or passages of the source.

What was measured:
Type in all cases: cell-based
[1] = test system: human hippocampal stem cells; assay: Cell proliferation, Alamar Blue staining of live cells; details: seven days of compound treatment; relative to vehicle control
Procedure: FIG. 1 is a bar graph illustrating an example of a proliferation profile of compounds selected from primary screening. Proliferation is measured after compound treatment for seven days by Alamar Blue staining of live cells per well. Shown are relative values over the vehicle control.
Neural stem cells and progenitor cells differentiate spontaneously in the absence of a mitogen; therefore, undifferentiated mitotic cells are harvested by enzyme treatment to remove residual mitogen, such as basic fibroblast growth factor (bFGF) used in expansion and proliferation of the cells. In one embodiment of the present invention, undifferentiated human hippocampal stem cells (e.g., HH580)/progenitor cells are harvested by enzyme treatment.
The collected cells are seeded for attachment of the cells such as standard 96-well or 384-well plates, pre-coated with extracellular matrix proteins, such as poly-D-lysine and fibronectin (e.g., Biocoat PDL, Fisher). The initial seeding density can be within the range of about 2,000-125,000 cells per well of a 96-well plate. The preferred density, however, is 40,000 cells per well of a 96-well plate which has been optimized for best signal-to-noise ratio as described in pending U.S. patent application Ser. No. 10/728,652. Cell density that is too low retards the initiation of differentiation and results in poor plating efficiency which interferes with the assay. Cell density that is too high leads to inhibition of neurogenesis due to cell-to-cell interaction and paracrine factors which also interfere with the assay. […] For example, for a 384-well plate which has approximately one-fourth of the surface area of a 96-well plate, the initial seeding density should be decreased by one-fourth accordingly.
The cells are passaged and grown for seven days in 15 cm plates in full growth medium according to Neuralstem protocol with 50% of the media changed every other day. Following centrifugation, the call pellet is re-suspended in N2b medium and enough N2b medium is added to the cell suspension to achieve a concentration of […]. The N2b seeding media includes a standard serum-free, growth factor-free, basal media without phenol red that supports healthy neuronal/glial survival. Fibronectin and PBS is completely removed by aspiration from wells of fibronectin-coated 96-well plate(s). 100 μl of N2b medium with or without 2× concentration of screening agents or compounds to be tested are added to each well. Subsequently, 100 μl of the cell suspension is added to each well at a density of 40,000 cells per well. The cell suspension is incubated for two days at 37° C. in the presence of 5% CO2.
On Days 2, 4, and 6 of post-plating, incremental additions of the compounds are made to each well at appropriate concentrations. Therefore, after two days, 100 μl of N2b medium is removed from the wells, and 100 μl of the N2b medium is added. Likewise, on days four and six, 100 μl of N2b medium is removed from the wells and 100 μl of the N2b medium is added, and the cell suspension is again incubated at 37° C. in the presence of 5% CO2.
On day seven, the final day of the culture, a fluorescent dye such as Alamar Blue dye is added to each well. Alamar Blue dye detects metabolic respiration and is a reflection of total cellular activity indicating changes in cell number of neurons. In this regard, 20 μl of Alamar Blue (Biosource International DAL 1025) is added to each well and incubated for two hours at 37° C. in the presence of 5% CO2.
As a preliminary detection of positive activities, the overall immunostaining intensity in each well is read by a fluorescence plate reader. For instance, the fluorescence of the oxidized dye in each well is read by a fluorescent plate reader such as the Molecular Devices Fluorometric Plate Reader. The reader is set on the Read Mode End Point setting at an excitation of 530 nm, an emission of 590 nm, and a cutoff 570 nm. […]

[2] = test system: Differentiating human hippocampal stem cells; assay: Neurogenesis dose-response profile
Procedure: FIG. 4 is a line graph illustrating an example of a neurogenesis dose-response profile of selected compounds. Differentiating human hippocampal stem cells were treated for seven days with varying concentrations of “primary hits”. Subsequently, the cells were fixed, stained with anti-beta tubulin antibody, and positive cells were quantified by Array Scan II. Shown are the number of neurons after each treatment normalized against the no-compound control.
In another in vitro assay, compounds are tested as above at varying concentrations to obtain a dose-response curve and EC50 values (effective concentration of the compound which produces 50% of the maximum possible response for that compound).
Primary dose-response profiles and secondary functional assays are used to further eliminate compounds from the primary screen based on a lack of dose-dependent effect on neurogenesis, indicated by lack of linearity of dose-response, and in vitro neurotoxicity. The dose-response curve measures neurogenesis over a concentration range of 100 pM to 100 μM. […] Table II contains the summary of EC50 of each compound tested.

[3] = test system: Differentiating hippocampal human stem cells; assay: Long-term treatment in vitro neurogenesis; details: Homo sapiens, 504 h, three weeks, 5× with 10 μM, compared to the control
Procedure: FIG. 11 is a bar graph illustrating an example of in vitro neurogenesis profile of the compounds for a long-term treatment. Differentiating hippocampal human stem cells mere treated with vehicle alone or with the test compounds for three weeks. Increase in cell number was determined compared to the control. Shown are several examples that are effective in continued neurogenesis. Bars represent mean+/−SD from six wells.
In another in vitro assay, compounds of the fused imidazole, iminopyrimidine, nicotinamide, aminomethyl phenoxypiperidine and aryloxypiperidine types are evaluated for their effect on the differentiation of the culture-born cells to mature neurons. More particularly, multipotent human hippocampal stem cells are treated in three doses over a one-week period in N2b media and in the presence of an agent of the type mentioned above. The cells are then fed twice weekly for approximately two more weeks in N2b or Neuralbasal+B27 Media (Gibco) and then cells are fixed using 4% paraformaldehyde. Cells are washed 3× with PBS (pH 7.4) and then stained using a nuclear stain (Hoechst or DAPI) and a mature neuronal marker, MAP-2ab (AP-20) antibody. A secondary antibody, Alexa Fluor 488 labeled goat anti-mouse IgG, is used to identify by fluorescent labeling the mature neurons. The fluorescent intensity and number of cells labeled in a multi-plate format can be measured using for instance a Array Scan II (Cellomics) or similar instrumentation.
Effects of the long-term NSI compound treatment on human hippocampal stem cells in the absence of mitogen is illustrated in FIG. 11. In FIG. 11, differentiating hippocampal human stem cells are treated with vehicle alone or with the test compounds for three weeks. Increase in cell number was determined compared to the control. Bars represent mean+/−SD from six wells. […] Several examples of NSI compounds are shown to be effective in continued neurogenesis. […] These agents comprise a class of compounds, aminopyrimidines, that, as shown previously, inhibited apoptosis. Accordingly, the aminopyrimidine class of compounds appear ideally suited for neurodegenerative long-term diseases including Alzheimer's disease and aging. Neurogenic agents that are neuroprotective like the sixteen compounds identified above might also be effective therapeutics for other neurodegenerative diseases in mammals including, but not limited to, stroke, traumatic brain injury, Parkinson's disease, and mild cognitive impairment.

SMILES: O=C(COc1ccccc1)NCc1nc2ccccn2c1NCC1CCCO1 (centres unmarked) [NSI-183]
- % Prolif (Alamar) [1]: 69 ± 18%
- activity at 0.001 µM ([2]; Homo sapiens, Neuron, 168 h, @1 nM, read-out: % Neuron Ratio Eff): 112%
- activity at 0.3 µM ([2]; Homo sapiens, Neuron, 168 h, @300 nM, normalized against no-compound control, read-out: Neuron# Eff): 140%
- EC50 ([2]; Homo sapiens, Neuron, 168 h, seven days, 100 pM to 100 μM): 0.05 nM
- % Neuron Ratio EC50 ([2]; seven days, 100 pM to 100 μM): No Curve
- activity at 10 µM ([3]; read-out: Long Term Treatment #Neur): 148 ± 30%
- activity at 10 µM ([3]; read-out: Long Term Treatment Neur Ratio): 111 ± 16%
- activity at 10 µM ([3]; read-out: Long Term Treatment Prolif): 99 ± 19%
